This note sets out measurements from PubChem BioAssay AID179 (DTP/NCI, 2004).

Active and inactive are the calls of the source.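 How the source made its calls: active means compounds giving half or more protection of infected cells from virus-caused growth loss, again on retest; inactive means the rest.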 Where a SMILES comes first, the peptide text is derived from it. The star is where a group is joined. Boc = CC(C)(C)OC(=O)*

The test system of this assay is CEM cells HIV-1 protection, formazan growth assay. Put plainly: NCI AIDS Antiviral Assay. Particulars: for IC50: measured here: growth of uninfected CEM cells. In short, it runs like this:
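Screen of anti-HIV-1 activity in human CEM cells using a formazan-based growth measurement at five drug concentrations. Hits with 50% or greater protection were repeated, and confirmation required reproducible complete protection.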

Consider `O=C1CSC2=NC3=C(CSC/C3=C\c3ccc(Cl)cc3)C(c3ccc(Cl)cc3)N12` (configuration not stated), for which the EC50 is more than 200 µM and the IC50 worked out at 9.77 µM.
In the case of `N#CC12C(=O)N3C(=NC(c4ccccc4)NC3c3ccccc3)C1(C#N)C(c1ccccc1)NC1=C2CCCC1` (configuration not stated), the EC50 is more than 200 µM and the IC50 is more than 200 µM.
For the compound `COc1cc(C(=O)O[C@H]2CCC3CCC2N3C)cc(OC)c1OC` (some centres not stated), the EC50 is more than 200 µM and the IC50 was more than 200 µM.
On to `CCN1CCCC(C#N)(c2ccccc2)CC1` (configuration not stated), for which the EC50 was more than 933 µM and the IC50 was 501 µM.
Consider `COC(=O)C(Cc1ccccc1)NC(=O)C(CCC(=O)OCc1ccccc1)NC(=O)OC(C)(C)C` (configuration not stated), for which the EC50 is more than 200 µM and the IC50 came to 28.8 µM.
On to `CC1=NC(C)(C)[N+]([O-])=C1`, for which the result was inactive.
On to `CC(=C/c1ccccc1)/C=C1/NC(=S)N(/C=C2\C(=O)Oc3ccccc3C2=O)C1=O`, for which the EC50 is more than 200 µM and the IC50 was more than 200 µM.
Consider `CC1=CC=C2c3ccccc3C=CN2C(=O)C1`, for which the EC50 is more than 200 µM and the IC50 amounted to 89.1 µM.
Regarding `C[Si](C)(C)CCOCN(C(=O)C1=CCC2(CC1)OCCO2)c1ccccc1I`, the EC50 was more than 200 µM and the concentration for half-maximal inhibition (IC50) was 12.9 µM.
For `COc1cc(C=C2C(=O)NC(=O)NC2=O)ccc1OCc1ccccc1` the same measures were more than 93.3 µM and 89.1 µM.
For `Cn1c(C(O)C2(c3cccnc3)SCCCS2)cc2ccccc21` (configuration not stated) the same measures were more than 200 µM and 75.9 µM.
`CN(C)CCNC(=O)Cn1ccc(=O)c2ccc([N+](=O)[O-])cc21`: the EC50 is more than 200 µM and the IC50 was more than 200 µM.
For `CC(C)OP(=O)(OC(C)C)/C(C#N)=C/c1c[nH]c2ccccc12`, the EC50 is more than 200 µM and the IC50 is more than 200 µM.
Take `COc1nc(NC2OC(COC(C)=O)C(OC(C)=O)C(OC(C)=O)C2OC(C)=O)c(N=CC=Nc2c(NC3OC(COC(C)=O)C(OC(C)=O)C(OC(C)=O)C3OC(C)=O)nc(OC)[nH]c2=O)c(=O)[nH]1` (configuration not stated): the outcome was inactive.
`O=C1N/C(=C\[N+](=O)[O-])c2ccccc21`: the EC50 was more than 501 µM and the concentration for half-maximal inhibition (IC50) came to 263 µM.
Consider `Nc1nnc(CCC(=O)Nc2cc(Cl)ccc2Cl)n1N`, for which the EC50 is more than 8.71 µM and the IC50 is more than 8.71 µM.
For the compound `CCCCCOP(=O)(OCCCCC)C(NC(C)=O)(C(=O)OCC)C(F)(F)F` (configuration not stated), the EC50 was more than 200 µM and the IC50 is 110 µM.
For `c1csc(-c2cscc2-c2cccs2)c1` the same measures were more than 200 µM and 37.2 µM.
For the compound `CC1=CC(=O)CC2(C)CC[C@@H]3C[C@]12OC3(C)C` (some centres not stated), the result was inactive.
Take `CO/C(=N\N=C\c1ccc(C(F)(F)F)cc1)c1ccncc1`: the EC50 was more than 117 µM and the IC50 is 69.2 µM.
For `Cc1ccccc1SCc1nc2ccccc2c(C)[n+]1[O-]`, the EC50 was 21.9 µM and the IC50 amounted to 102 µM.
For the compound `Cc1nnc2c3nccnc3c(Cl)nn12`, the EC50 is more than 200 µM and the IC50 is 2.34 µM.
Consider `CCOC(=O)C1=C(C#N)S(=O)(=O)c2c(oc(C)c2C)N1`, for which the EC50 was more than 200 µM and the IC50 was more than 200 µM.
As for `Cc1ccccc1NC(=O)C(=O)CC(=O)c1sc(-n2nc(-c3ccccc3)cc2-c2ccccc2)nc1C`, the EC50 is more than 479 µM and the IC50 is more than 479 µM.
Consider `COc1ccc(/C=C2\CCCC(C(NO)c3ccc(OC)cc3)C2=NO)cc1` (configuration not stated), for which the EC50 was more than 19.1 µM and the IC50 is more than 19.1 µM.
`C1OC1CN1CCN(CC2CO2)CC1` (configuration not stated): the outcome was inactive.
Regarding `CCOC(=O)C1=NN(c2ccccc2)C(=O)/C1=C\N1C(=O)/C(=C/c2cccc(OC)c2O)SC1=S`, the EC50 was more than 100 µM and the IC50 came out at 53.7 µM.
`CCCCC#COP(=O)(OCC)OCC`: the EC50 was more than 251 µM and the IC50 was more than 251 µM.
Take `O=S(=O)(NCCSSCCNS(=O)(=O)c1ccccc1)c1ccccc1`: the EC50 was more than 200 µM and the IC50 came out at 13.5 µM.
As for `Cn1c(-c2ccccc2)cc(-c2ccc3c(c2)OCO3)c1-c1ccsc1`, the EC50 is more than 200 µM and the IC50 was more than 200 µM.
Turning to `O=C1NC2c3c(I)sc(I)c3C(=O)C2O1` (configuration not stated), the EC50 is 0.603 µM and the IC50 was 1.12 µM.
For `O=C1NC2(CCCCC2)OC12CCCCC2` the same measures were more than 6.46 µM and more than 6.46 µM.
Regarding `NC(CCSSCCC(N)P(=O)(O)O)P(=O)(O)O` (configuration not stated), the EC50 is more than 200 µM and the IC50 was more than 200 µM.
Consider `CSCCC(NC(=O)C(CC(C)C)NC(=O)C1CCCN1C(=O)C(Cc1ccccc1)NC(=O)C(Cc1ccccc1)NC(=O)C(CCC(=O)O)NC(=O)OC(C)(C)C)C(N)=O` (configuration not stated) (Boc-EFFPLM-NH2; configuration not given here), for which the EC50 was more than 282 µM and the IC50 is more than 282 µM.
With `COc1ccc(N2C(N)=C(C#N)C(C#N)(C#N)C2c2cccc([N+](=O)[O-])c2)cc1` (configuration not stated), the EC50 was more than 200 µM and the IC50 came out at 5.89 µM.
`O=c1ccc2c([N+](=O)[O-])cc([N+](=O)[O-])c(O)c2[nH]1`: the outcome was inactive.
The same measure, in the same setting: the value for `CC(C)CC(NC(=O)C(Cc1ccccc1)NC(=O)[C@H]1CC[C@H](NC(=O)C(Cc2ccc(OC(C)(C)C)cc2)NC(=O)OC(C)(C)C)C1)C(N)=O` (some centres not stated) was “inactive”.
On to `CCOC(=O)/C(=C\c1cn(C(C)=O)c2ccccc12)P(C)(=O)OCC` (configuration not stated), for which the EC50 was more than 200 µM and the IC50 is 55 µM.
For `Oc1ccc(C2Oc3cc(O)c4cc3C2c2c3c(cc5c2[C@@H](c2cc(O)cc(O)c2)C(c2ccc(O)cc2)O5)O[C@@H](c2ccc(O)cc2)C3c2cc(O)cc3c2C4[C@H](c2ccc(O)cc2)O3)cc1` (some centres not stated) the same measures were more than 15.8 µM and more than 15.8 µM.
For `O=C(c1ccc(Cl)cc1)c1ccc(OCCSCCCCCCCCCCSCCOc2ccc(C(=O)c3ccc(Cl)cc3)cc2)cc1` the same measures were more than 13.8 µM and more than 13.8 µM.
For `Cc1ccccc1NC(=O)C(=O)CC(=O)c1c(C)n([O-])c2ccccc2[n+]1=O` the same measures were more than 3.8 µM and more than 3.8 µM.
In the case of `COc1ccc2c(c1)OC1c3ccccc3OCC21` (configuration not stated), the result was inactive.
On to `NNC(=O)CSc1nc2ccccc2c(=O)n1N`, for which the EC50 is more than 200 µM and the IC50 was more than 200 µM.
For `O=C(NNc1nc2ccccc2n2cccc12)c1cnccn1`, the EC50 is more than 2 µM and the IC50 came to 0.417 µM.
`Nc1nc(N)c2ncn(CCOC(c3ccccc3)P(=O)(O)O)c2n1` (configuration not stated): the EC50 is more than 200 µM and the IC50 was more than 200 µM.
For the compound `CSC1=Nc2cc3c(cc2C(=O)N2C[C@H](O)CC12)OCO3` (some centres not stated), the EC50 is more than 200 µM and the IC50 was 110 µM.
For the compound `COc1cc2oc(-c3ccc(O)cc3)cc(=O)c2c(OC)c1O`, the EC50 is more than 200 µM and the IC50 is more than 200 µM.
Take `COC(=O)[C@@H]1[C@H]2CC[C@]3(C)[C@@H](OC(C)=O)CC[C@H]3[C@@H]2CC[C@H]1C(C)=O`: the EC50 is more than 174 µM and the half-inhibitory concentration (IC50) was more than 174 µM.
For the compound `COc1ccc(N2C(=O)C3c4[nH]c5ccc(C)cc5c4C4CCC(C(C)C)CC4C3C2=O)cc1` (configuration not stated), the result was inactive.
In the case of `Oc1ccc(C=NCC2CCCN3CCCCC23)cc1` (configuration not stated), the EC50 was more than 200 µM and the IC50 was found to be 33.1 µM.
For the compound `CC(=O)OC1COC(n2c(=S)n(-c3ccc(C)cc3)c(=O)c3ccccc32)C(OC(C)=O)C1OC(C)=O` (configuration not stated), the EC50 was more than 25.7 µM and the IC50 was more than 25.7 µM.
For the compound `COS(=O)(=O)c1c(N)n(C)c(=O)n(C)c1=O`, the EC50 is more than 200 µM and the IC50 was determined as 66.1 µM.
For `CC(C)(C)OC(=O)N(CCNS(=O)(=O)c1cccc2cnccc12)CCC(=O)ON1C(=O)CCC1=O` the same measures were more than 200 µM and more than 200 µM.
Turning to `O=[N+]([O-])C1C2C=CC(C2)[C@H]1c1ccco1` (some centres not stated), the result was inactive.
Regarding `N#C/C=C\c1ccc(Cl)cc1`, the EC50 was more than 43.7 µM and the IC50 is more than 43.7 µM.
On to `CC1(C)C(O)C[C@]23CCC[C@](C)(C[C@@H](O)C12)C3` (some centres not stated), for which the EC50 was more than 200 µM and the 50% inhibitory concentration (IC50) is more than 200 µM.
For the compound `Cn1c2ccccc2c2nnc(N/N=C/c3ccncc3)nc21`, the EC50 was more than 200 µM and the IC50 was more than 200 µM.
Take `O=C1C=C(C23CC4CC(CC(C4)C2)C3)N2CCCc3cccc(c32)N1`: the EC50 is more than 100 µM and the IC50 is more than 100 µM.
Take `OCCC1(O)CCC(O)CC1` (configuration not stated): the outcome was inactive.
Still for that read-out and setting: for `Cc1cn(C(C)OCCN(O)C(N)=O)c(=O)[nH]c1=O` (configuration not stated) the value was “inactive”.
For `CCOC(=O)/C(=C\c1ccccc1)C(=O)O`, the EC50 was more than 1120 µM and the IC50 is 240 µM.
For `S=c1ncnc2cc3[nH][nH]cc3cc12` the same measures were more than 67.6 µM and 49 µM.
`O=C1c2cccc3cc([N+](=O)[O-])cc(c23)C(=O)N1CCN1CCCC1`: the EC50 was more than 200 µM and the IC50 turned out to be 0.0832 µM.
For `COc1cccc(OC)c1SSCCN` the same measures were more than 200 µM and 24.5 µM.
For `CCOP(=O)(OCC)/C(C#N)=C/c1ccc(OC)cc1` the same measures were more than 316 µM and more than 316 µM.
For `COc1ccccc1N1CCN(CCCNC(=O)c2cc(Cl)c(N)c(Cl)c2)CC1` the same measures were more than 200 µM and 89.1 µM.
For the compound `NC1(C(=O)N2CCCC2C(=O)O)CCCC1` (configuration not stated) (HELM PEPTIDE1{[NC1(C(=O)[*:2])CCCC1].[O=C(O)C1CCCN1[*:1]]}$$$$V2.0), the EC50 is more than 200 µM and the IC50 is more than 200 µM.
Turning to `C=CCCCC(C(=O)OCC)C(=O)OCC`, the outcome was inactive.
With `O=S1Nc2c(Cl)cc(Cl)c(Cl)c2S1` (configuration not stated), the EC50 is more than 129 µM and the IC50 was more than 129 µM.
Consider `COc1ccc(N2C(=O)/C(=C\c3ccc(N(CCC#N)CCC#N)cc3)N=C2COc2ccccc2)cc1`, for which the EC50 was more than 26.9 µM and the IC50 is more than 26.9 µM.
Consider `COc1ccc(CCCNC(=O)Cc2ccccc2CO)cc1OC`, for which the EC50 is more than 200 µM and the concentration for half-maximal inhibition (IC50) was more than 200 µM.
`N#CC1CCCCC1NC1(C#N)CCCCC1` (configuration not stated): the EC50 is more than 195 µM and the IC50 is more than 195 µM.

One may read the EC50 as the concentration at which the effect is half-maximal. By IC50 is commonly meant the concentration that gives 50% inhibition. A low value points to inhibition by little substance.
